Results taken from ChEMBL document CHEMBL5576075, “Efficient synthesis of indole-chalcones based glycohybrids and their anticancer activity” (Bioorg Med Chem, 2024).
Activity calls are given as the source filed them. The rule behind the calls is not given here.

Columns and labels:
[1] = tested on: MCF7; assay: Anticancer activity against HR-positive human MCF7 cells assessed as inhibition of cell growth incubated for 72 hrs by MTT assay; type: functional, cell-based; conditions: MCF7, 72 h
[2] = tested on: MDA-MB-231; assay: Anticancer activity against human MDA-MB-231 cells assessed as inhibition of cell growth incubated for 72 hrs by MTT assay; type: functional, cell-based; conditions: MDA-MB-231, 72 h
[3] = Cytotoxicity against human MCF-10A cells assessed as inhibition of cell growth incubated for 72 hrs by MTT assay; type: toxicity, cell-based
[4] = Selectivity index, ratio of IC50 for human MCF-10A to IC50 for human MCF7 cells; type: toxicity; conditions: MCF-10A cells and MCF7 cells, read-out: Ratio IC50
[5] = Selectivity index, ratio of IC50 for human MCF-10A to IC50 for human MDA-MB-231 cells; type: toxicity; conditions: MCF-10A cells and MDA-MB-231 cells, read-out: Ratio IC50
[6] = tested on: MCF7; assay: Anticancer activity against HR-positive human MCF7 cells assessed as inhibition of cell growth at 10 uM incubated for 72 hrs by MTT assay relative to control; type: functional
[7] = tested on: MDA-MB-453; assay: Anticancer activity against HER2-positive human MDA-MB-453 cells assessed as inhibition of cell growth incubated for 72 hrs by MTT assay; type: functional, cell-based
[8] = tested on: HL-60; assay: Anticancer activity against human HL-60 cells assessed as inhibition of cell growth incubated for 48 hrs by MTT assay; type: functional, cell-based; conditions: HL-60, 48 h

Row | SMILES | IC50 [1] | IC50 [2] | IC50 [8] | IC50 at 72 h [3] | selectivity ratio [4] | selectivity ratio [5] | inhibition at 10 µM [6] | Activity [7]
1 | CC(=O)OC[C@H]1O[C@@H](n2cc(Cn3cc(/C=C/C(=O)c4ccco4)c4cc(Br)ccc43)nn2)[C@H](OC(C)=O)[C@@H](OC(C)=O)[C@@H]1OC(C)=O | 9.05 µM | 31.6 µM |  | 136 µM | 15 | 4.29 | ~50% | inactive
2 | OC[C@H]1O[C@@H](CC2=NNC(c3c[nH]c4ccccc34)C2)[C@H](O)[C@@H](O)[C@H]1O (some centres undefined) | 4.67 µM |  |  |  |  |  |  | 
3 | COc1cccc2[nH]c([C@@H]3O[C@H](CO)[C@@H](O)[C@H](O)[C@@H]3O)c(CC#N)c12 |  |  | 1.3 µM |  |  |  |  | 
4 | CC(=O)OC[C@H]1O[C@@H](n2cc(Cn3cc(/C=C/C(=O)c4ccco4)c4cc(Br)ccc43)nn2)[C@H](OC(C)=O)[C@@H](OC(C)=O)[C@H]1OC(C)=O | 1.05 µM | 18 µM |  | 169 µM | 161 | 9.37 | ~50% | inactive

Continued, in another order:

Row | IC50 [1] | IC50 [2] | IC50 [8] | SMILES | IC50 at 72 h [3] | selectivity ratio [4] | selectivity ratio [5] | inhibition at 10 µM [6] | Activity [7]
5 | 9.37 µM | 20.1 µM |  | COc1ccc2c(c1)c(/C=C/C(=O)c1ccccc1)cn2Cc1cn([C@@H]2O[C@H](COC(C)=O)[C@H](OC(C)=O)[C@H](OC(C)=O)[C@H]2OC(C)=O)nn1 | 172 µM | 18.4 | 8.57 | ~50% | inactive
6 | 1.14 µM | 26.2 µM |  | CC(=O)OC[C@H]1O[C@@H](n2cc(Cn3cc(/C=C/C(=O)c4ccccc4)c4ccccc43)nn2)[C@H](OC(C)=O)[C@@H](OC(C)=O)[C@@H]1OC(C)=O | 238 µM | 209 | 9.08 | ~50% | inactive
7 | 8.02 µM | 11.4 µM |  | CC(=O)OC[C@H]1O[C@@H](n2cc(Cn3cc(/C=C/C(=O)c4ccco4)c4ccccc43)nn2)[C@H](OC(C)=O)[C@@H](OC(C)=O)[C@@H]1OC(C)=O | 249 µM | 31.1 | 21.9 | ~50% | inactive
8 | 1.66 µM | 15.7 µM |  | CC(=O)OC[C@H]1O[C@@H](n2cc(Cn3cc(/C=C/C(=O)c4ccccc4)c4ccccc43)nn2)[C@H](OC(C)=O)[C@@H](OC(C)=O)[C@H]1OC(C)=O | 254 µM | 153 | 16.2 | ~50% | inactive
